Experimental data: PMC10178864, “Identification, Baculoviral Expression, and Biochemical Characterization of a Novel Cholinesterase of Amblyomma americanum (Acari: Ixodidae)” (International Journal of Molecular Sciences, 2023)
Where two headings read alike, the source gives them in different places.

Legend:
[1] = target: T1, rAaChE1 (recombinant AaChE1, A. americanum cholinesterase 1); experiment: cholinesterase inhibition assay, absorbance at […] nm; type: biochemical, Amblyomma americanum; set-up: unit not given here; conditions: 15 min preincubation, culture supernatant
T1 construct: pBlueBac4.5/V5-His in Sf21 cells (reverse primer appears to carry the native stop codon); unpurified culture supernatant

[2] = system: T1, rAaChE1 (recombinant AaChE1, A. americanum cholinesterase 1); experiment: cholinesterase assay, absorbance at […] nm, microplate; type: biochemical, Amblyomma americanum; conditions: culture supernatant of baculovirus-infected Sf21 cells

| Structure (SMILES) | (IC50) ^2 / rAaChE1 (ATCh Substrate) ([1]; covalent) | further results |
| --- | --- | --- |
| CNC(=O)Oc1ccc2c(c1)[C@]1(C)CCN(C)[C@@H]1N2C [Eserine] | 2.28 × 10^−10 (2.37–3.26 × 10^−10) |  |
| CC(C)NP(=O)(NC(C)C)OP(=O)(NC(C)C)NC(C)C [Iso-OMPA] | 3.48 × 10^−05 (2.76–4.43 × 10^−5) |  |
| CC(=O)SCC[N+](C)(C)C [ATCh, acetylthiocholine] |  | Km ([2]; read-out: KM): 6.39 µM |
| CCOC(=O)CC(SP(=O)(OC)OC)C(=O)OCC (stereo not shown) [Malaoxon] | 2.77 × 10^−8 (2.45–3.14 × 10^−8) |  |
| CCOP(=O)(OCC)Oc1ccc2c(C)c(Cl)c(=O)oc2c1 [Coroxon] | 2.35 × 10^−11 (1.93–2.84 × 10^−11) |  |
| C=CC[N+](C)(C)c1ccc(CCC(=O)CCc2ccc([N+](C)(C)CC=C)cc2)cc1 [BW284c51, 1,5-Bis(4-allyldimethylammoniumphenyl)pentan-3-one dibromide] |  | (IC50) ^2 / rAaChE1 (ATCh Substrate) [1]: 2.96 × 10^−7 (2.50–3.50 × 10^−7) |
| CCCC(=O)SCC[N+](C)(C)C [BuTCh, butyrylthiocholine] |  | Km ([2]; read-out: apparent KM): 14.2 µM |
